The structures appear in SMILES notation. In brackets after ≈: the same amount, converted by molar mass. Where two headings read alike, the source gives them in different places. Bounds are passed on as bounds.

The text below walks through data of publication PMC8774223, “Comparison of Antiplatelet Effects of Phenol Derivatives in Humans” (Biomolecules, 2022).

The subject of series [1] is platelet aggregation triggered by AA. Description: Arachidonic acid (AA)-induced platelet aggregation, whole blood aggregometry. The format is cell-based, human. The following applies: for IC50: Platelet. The method, then:
Blood from 20 non-smoking, young (aged from 22 to 45 years, median 27), healthy volunteers was collected by venipuncture into plastic tubes containing heparin sodium (170 IU/10 mL; Zentiva, Prague, Czech Republic). No medication had been taken by volunteers 14 days prior blood collection and no alcohol had been consumed 12 h before the blood draw.
A total of 300 µL of whole blood was diluted with the same volume of 0.9 % sodium chloride (B.Braun, Melsungen, Germany) preheated to 37 °C and incubated with 5 µL of a tested compound dissolved in DMSO (Penta, Prague, Czech Republic) at a final concentration of 0.8% for 3 min at 37 °C. Platelet aggregation was then induced by addition of collagen (Diagnostica a.s., Czech Republic), arachidonic acid (AA) or Thrombin Receptor Activating Peptide (TRAP) (Roche Holding AG, Basel, Switzerland) and monitored for 6 min. The dose of inducer was initially set to the minimal concentration which caused maximal aggregation. The second calibration was carried out by use of standards, 4-methylcatechol in the case of AA- and collagen-triggered aggregation (Sigma-Aldrich) or vorapaxar for thrombin aggregation (Selleck Chemicals GmbH, Munich, Germany). […] For comparison, also the clinically used standard ASA was employed.

For series [2], the system named is platelet aggregation induced by collagen. Kind of series: Collagen-induced platelet aggregation, whole blood aggregometry. The format is cell-based, human. The conditions noted are these: for IC25: Platelet, human whole blood, read-out: IC25 (Mean ± SD, μM) on Collagen-Induced Platelet Aggregation; for Effect on collagen-induced aggregation compared with ASA: comparison of 95% confidence intervals of fitted curves / IC25. The method, then:
Blood from 20 non-smoking, young (aged from 22 to 45 years, median 27), healthy volunteers was collected by venipuncture into plastic tubes containing heparin sodium (170 IU/10 mL; Zentiva, Prague, Czech Republic). No medication had been taken by volunteers 14 days prior blood collection and no alcohol had been consumed 12 h before the blood draw. The protocol was approved by the Ethics Committee of the Faculty of Pharmacy, Charles University on May 31, 2019.
A total of 300 µL of whole blood was diluted with the same volume of 0.9 % sodium chloride (B.Braun, Melsungen, Germany) preheated to 37 °C and incubated with 5 µL of a tested compound dissolved in DMSO (Penta, Prague, Czech Republic) at a final concentration of 0.8% for 3 min at 37 °C. Platelet aggregation was then induced by addition of collagen (Diagnostica a.s., Czech Republic), arachidonic acid (AA) or Thrombin Receptor Activating Peptide (TRAP) (Roche Holding AG, Basel, Switzerland) and monitored for 6 min. The dose of inducer was initially set to the minimal concentration which caused maximal aggregation. The second calibration was carried out by use of standards, 4-methylcatechol in the case of AA- and collagen-triggered aggregation (Sigma-Aldrich) or vorapaxar for thrombin aggregation (Selleck Chemicals GmbH, Munich, Germany). The final concentrations of inducers were in the range of 0.16–2.42 µg/mL for collagen, 25–196 µM for AA and 0.8–9.8 µM for TRAP. For comparison, also the clinically used standard ASA was employed.

In series [3] the test system is MCF-7/S0.5 human breast cancer cell line. Kind of series: CellTiter 96 AQueous One Solution Cell Proliferation Assay. The following applies: 48 h. Type of series: cell-based. The procedure: MCF-7/S0.5 human breast cancer cell line adapted to low-sera conditions (ECACC, Porton Down, Salisbury, UK) was used. Cells were maintained at 37 °C and 5% CO2 and were passaged once a week. Dulbecco’s Modified Eagle Medium/Nutrient Mixture F-12 (DMEM/F-12; Thermo Fisher, Waltham, MA, USA) supplemented with FBS Charcoal Stripped, antibiotics (penicillin/streptomycin) and insulin, according to cell provider instructions, was used as the growth medium. Cells were used in passages between 7 and 12.
Cell viability assay was performed using CellTiter 96® AQueous One Solution Cell Proliferation Assay (Promega, Madison, WI, USA). MCF-7 cells were seeded at a density of 80 × 10^3 cells per well in a 96-well plate. Cells were exposed to the compounds and incubated at 37 °C with CO2 5% for 48 h prior tetrazolium reagent [3-(4,5-dimethylthiazol-2-yl)-5-(3-carboxymethoxyphenyl)-2-(4-sulfophenyl)-2H-tetrazolium] addition (20 µL/well). DMSO at a final concentration of 0.1% (as it is not associated with toxicity) was used as a negative control (set to 100% viability), and sodium dodecyl sulfate (SDS 10%) as positive control. After incubation period CellTiter reagent was added to the cells and further incubated for 3 h. After this time, absorbance was recorded at a wavelength of 490 nm by use of a microplate reader (Hidex Oy, Turku, Finland). All samples were performed in triplicates and repeated at least three times.

The next series has as its system bacterial colonies. Details: method as in PMID 11351422. The conditions noted are these: cited from earlier work.
The test system of a further series is plasmids. The following applies: 50 μM, without redox-active metals; cited from earlier work.
The test system of series [4] is encephalomyocarditis virus. More on the design: method as in PMID 35558500. The conditions noted are these: cited from earlier work; for Antiviral potency relative to catechol: lowest tested concentration 0.4 mg/mL (approximately 3 mM).
For another series, the system named is Nrf2. The conditions noted are these: many cell lines; effect observed even at 5 μM; cited from earlier work.
Series [5] concerns three different cell lines. More on the design: method as in PMID 26885667. The conditions noted are these: 30 μM; cited from earlier work.
The test system of a further series is platelet aggregation. The following applies: cited from earlier work.
Another series concerns thrombin pathway. The conditions noted are these: cited from earlier work.
On the set-up of series [6]: method as in PMID 25571923. The conditions noted are these: humans, on average; cited from earlier work.
The mark [7] stands for this setting: Homo sapiens, read-out: IC50 class, colour key of Figure 3.
Setting [8] is: human whole blood, class assigned by colour of the drawn structure, read-out: IC50 class, colour key of Figure 3.
Setting [9] is: human whole blood, read-out: IC50 (Mean ± SD, μM) on Arachidonic Acid-induced Platelet Aggregation.

Consider `COc1ccccc1OC` [1,2-dimethylcatechol, 1,2-dimethoxybenzene], for which the IC50 is around 78 µM in series [1] (Homo sapiens, read-out: IC50 (Mean ± SD, μM) on Arachidonic Acid-induced Platelet Aggregation) and above 100 µM in series [1] (setting [7]). Further, in [1] (human whole blood), the “Activity towards AA-induced aggregation (in words)” value was “inactive”.

For `COc1ccc(C)c(OC)c1` [2,4-dimethoxytoluene], the IC50 in series [1] (setting [8]) was above 100 µM; in series [1] (setting [9]) it was around 32 µM.

As for `Nc1ccccc1O` [2-aminophenol], the IC50 in series [1] (setting [9]) turned out to be 6.65 ± 1.06 µM.

As to `COc1cc(C)ccc1O` [2-methoxy-4-methylphenol], the half-maximal inhibitory concentration (IC50) in series [1] (setting [8]) was below 3 µM. Moreover, the half-maximal inhibitory concentration (IC50) in series [1] (setting [9]) was 2.57 ± 2.24 µM. Moreover, in series [2], the 25% effect concentration (IC25) is 11.5 ± 9.05 µM and the “Effect on collagen-induced aggregation compared with ASA” value (from here on “Effect … compared with ASA”) is given as “significantly more efficient than ASA”.

For the compound `Oc1cc(Cl)cc(Cl)c1O` [3,5-dichlorocatechol], the IC50 in series [1] (setting [7]) was above 10 µM; in series [1] (setting [9]), 13.5 ± 1.57 µM. Moreover, the results for the “Cell proliferation / viability, MCF-7/S0.5” value in series [3] (10 μM) and in series [3] (100 μM) were “not toxic” and “decreased cell proliferation”, respectively. In the series on bacterial colonies (10 μM), the “Formation of bacterial colonies” value is given as “blocked the formation of bacterial colonies”. For the same compound, in the series with bacterial colonies, the Antibacterial activity entry is listed as “Antibacterial activity was observed”. Moreover, in the series on plasmids, the DNA damage result was “no DNA damage was observed”.

`Nc1cccc(O)c1O` [3-aminocatechol]: the 50% inhibitory concentration (IC50) in series [1] (setting [9]) turned out to be 3.82 ± 0.5 µM.

For `Oc1cccc(F)c1O` [3-fluorocatechol], the IC50 in series [1] (setting [8]) is below 3 µM; in [1] (setting [9]) it was 1.74 ± 0.17 µM.

As to `CC(C)c1cccc(O)c1O` [3-isopropylcatechol], the IC50 is below 3 µM in [1] (setting [8]) and 2.28 ± 0.3 µM in series [1] (setting [9]). In addition, the IC25 in series [2] came to 12.9 ± 21.3 µM. The “Cell proliferation / viability, MCF-7/S0.5” value in series [3] (10 μM) was “not toxic”; in [3] (100 μM), “decreased cell proliferation”.

As to `COc1cccc(O)c1O` [3-methoxycatechol], the concentration for half-maximal inhibition (IC50) in [1] (setting [9]) came to 7.92 ± 0.74 µM. Further, the “Antiviral potency relative to catechol” value in series [4] is given as “more potent”.

`Cc1cccc(O)c1O` [3-methylcatechol]: the IC50 in [1] (setting [8]) is below 3 µM; in series [1] (setting [9]), 1.61 ± 0.17 µM. Besides, the IC25 in [2] turned out to be 7.15 ± 6.41 µM.

Take `Oc1cc(Cl)c(Cl)cc1O` [4,5-dichlorocatechol]: the IC50 in [1] (setting [9]) worked out at 3.35 ± 0.92 µM. For the same compound, the 25% effect concentration (IC25) in [2] came to 9.86 ± 15.1 µM. For the same compound, the “Cell proliferation / viability, MCF-7/S0.5” value in series [3] (10 μM) is reported as “not toxic”; in series [3] (100 μM), “decreased cell proliferation”; in series [3] (100 μM, listed as 4,5-dichlorcatechol), “blocked cell proliferation”.

Turning to `Nc1ccc(O)c(O)c1` [4-aminocatechol], the IC50 in series [1] (setting [8]) is above 10 µM; in [1] (setting [9]), around 21 µM.

As for `Oc1ccc(Cl)cc1O` [4-chlorocatechol], in series [1] (setting [9]), the IC50 worked out at 3.66 ± 0.29 µM. The Antibacterial activity entry in the series with bacterial colonies is “Antibacterial activity was observed”. In the series on plasmids, the DNA damage result was “no DNA damage was observed”.

Take `CCc1ccc(O)c(O)c1` [4-ethylcatechol]: the half-inhibitory concentration (IC50) in series [1] (setting [8]) is below 3 µM. Besides, the IC50 in series [1] (setting [9]) is 1.29 ± 0.14 µM. Also, in series [2], the IC25 came out at 4.61 ± 1.16 µM and the “Effect … compared with ASA” value is “significantly more efficient than ASA”. The “Antiviral potency relative to catechol” value in series [4] is on record as “more potent”. In addition, the “Activation of Nrf2” value in the series on Nrf2 is “clearly confirmed”. Further, the “Toxicity to cell lines” value in series [5] is given as “not toxic”.

With `CCc1ccc(O)cc1` [4-ethylphenol], the “Activation of Nrf2” value with Nrf2 was “inactive”.

On to `Oc1ccc(F)cc1O` [4-fluorocatechol], for which the IC50 in series [1] (setting [8]) was below 3 µM; in series [1] (setting [9]) it was 1.82 ± 0.21 µM. Further, the IC25 in [2] stood at 4.72 ± 0.28 µM. Further, the “Effect … compared with ASA” value in series [2] is given as “significantly more efficient than ASA”.

Turning to `Cc1ccc(O)c(O)c1` [4-methylcatechol, reference compound], the IC50 in [1] (setting [8]) was below 3 µM; in series [1] (setting [9]), 2.59 ± 0.17 µM. Moreover, the 25% effect concentration (IC25) in [2] turned out to be 2.66 ± 2.21 µM. Besides, in [5], the “Toxicity to cell lines” value is “not toxic”. Besides, the “Antiplatelet potency relative to acetylsalicylic acid (ASA)” value in the series on platelet aggregation is on record as “approximately ten times higher potency”. Moreover, the “Effect on thrombin pathway” value in the series with thrombin pathway is given as “no effect”.

Take `O=[N+]([O-])c1ccc(O)c(O)c1` [4-nitrocatechol]: the IC50 is above 10 µM in [1] (setting [8]) and 13.3 ± 1.57 µM in series [1] (setting [9]). Further, the “Cell proliferation / viability, MCF-7/S0.5” value in series [3] (10 μM) is recorded as “not toxic”; in series [3] (100 μM), “decreased cell proliferation”.

As to `CC(C)(C)c1ccc(O)c(O)c1` [4-tert-butylcatechol], the IC50 in series [1] (setting [9]) amounted to 7.24 ± 3.75 µM.

`C=Cc1ccc(O)c(O)c1` [4-vinylcatechol]: in [5], the “Toxicity to cell lines” value is listed as “not toxic”.

For `CC(=O)Oc1ccccc1C(=O)O` [ASA, acetylsalicylic acid, reference compound], in series [2], the IC25 worked out at 26.9 ± 2.25 µM.

As to `Cc1ccccc1O` [o-cresol], the values for the half-inhibitory concentration (IC50) in series [1] (setting [7]) and in [1] (setting [9]) were above 10 µM and 12 ± 5.55 µM, respectively. The “Inhibition of platelet aggregation” value in the series on platelet aggregation is reported as “inhibited platelet aggregation”. Besides, the “Effect on thrombin pathway” value with thrombin pathway is “no effect”.

For the compound `Cc1ccccc1N` [o-toluidine], in [1] (setting [7]), the concentration for half-maximal inhibition (IC50) is above 100 µM. Further, in series [1] (human whole blood), the “Activity towards AA-induced aggregation (in words)” value was “inactive or only weakly active”.

In the case of `O=S(=O)(O)Oc1ccccc1O` [pyrocatechol-sulfate], the Plasma levels in [6] is 12 µM.

As to `Oc1ccccc1O` [pyrocatechol], the results for the IC50 in series [1] (setting [9]) and in series [4] (read-out: IC50 antiviral activity) were 4 ± 0.45 µM and 6000 µM, respectively. In addition, the IC50 antiviral activity in [4] was 670 µg/mL (≈ 6.08 mM). For the same compound, the Antibacterial activity result in the series with bacterial colonies was “Antibacterial activity was observed”. Moreover, the “Activation of Nrf2” value in the series on Nrf2 is recorded as “clearly confirmed”. Also, in [5], the “Toxicity to cell lines” value is “not toxic”.
